Laboratory results published in ChEMBL document CHEMBL6103629 (J Med Chem, 2025).
pIC50: −log10 of the molar value.

Key:
[1] = tested on: LoVo; assay: Induction of apoptosis in human LoVo cells assessed as viable cells at 1 uM incubated for 24 hrs by Annexin-V-FITC-PI staining based flow cytometric analysis (reference value: 72.1 %); format: functional; settings: read-out: Activity
[2] = tested on: LoVo; assay: Induction of apoptosis in human LoVo cells assessed as late apoptotic cells at 1 uM incubated for 24 hrs by Annexin-V-FITC-PI staining based flow cytometric analysis (reference value: 13.2 %); format: functional
[3] = tested on: LoVo; assay: Induction of apoptosis in human LoVo cells assessed as viable cells at 3 uM incubated for 24 hrs by Annexin-V-FITC-PI staining based flow cytometric analysis (reference value: 72.1 %); format: functional; settings: read-out: Activity
[4] = tested on: LoVo; assay: Induction of apoptosis in human LoVo cells assessed as early apoptotic cells at 3 uM incubated for 24 hrs by Annexin-V-FITC-PI staining based flow cytometric analysis (reference value: 13.7 %); format: functional
[5] = tested on: LoVo; assay: Induction of apoptosis in human LoVo cells assessed as late apoptotic cells at 3 uM incubated for 24 hrs by Annexin-V-FITC-PI staining based flow cytometric analysis (reference value: 13.2 %); format: functional
[6] = target: Phosphatidylinositol 4,5-bisphosphate 3-kinase catalytic subunit alpha isoform (Homo sapiens, UniProt P42336); assay: Inhibition of PI3Kalpha (unknown origin) preincubated for 15 mins and measured after 60 mins by Z-LYTE screening
[7] = Plasma protein binding in Beagle dog at 1 uM incubated for 5 hrs in HTD dialysis in the presence of verapamil by LC-MS/MS analysis relative to control; format: ADME, cell-free, Canis lupus familiaris; settings: read-out: PPB (converted)
[8] = Drug metabolism in CD-1 mouse plasma by LC-MS/MS analysis; format: ADME, cell-free; settings: 5 h, 1 µM
[9] = Stability in Beagle dog plasma assessed as half life by LC-MS/MS analysis; format: ADME, cell-free, Canis lupus familiaris
[10] = Stability in human plasma assessed as half life by LC-MS/MS analysis; format: ADME, cell-free
[11] = Drug metabolism in human liver cells at 2 uM incubated upto 120 mins by LC-MS/MS analysis; format: ADME, cell-based; settings: 2 h
[12] = target: CYP1A2 (Homo sapiens, UniProt P05177); assay: Inhibition of recombinant human CYP1A2 assessed as residual activity at 1 uM in the presence of NADPH incubated for 60 mins by LC-MS/MS analysis relative to control; format: ADME; settings: read-out: Activity
[13] = target: CYP2C9 (Homo sapiens, UniProt P11712); assay: Inhibition of recombinant human CYP2C9 assessed as residual activity at 1 uM in the presence of NADPH incubated for 60 mins by LC-MS/MS analysis relative to control; format: ADME; settings: read-out: Activity
[14] = target: CYP3A4 (Homo sapiens, UniProt P08684); assay: Inhibition of recombinant human CYP3A4 assessed as residual activity at 1 uM in the presence of NADPH incubated for 60 mins by LC-MS/MS analysis relative to control; format: ADME; settings: read-out: Activity
[15] = target: CYP2C8 (Homo sapiens, UniProt P10632); assay: Inhibition of recombinant human CYP2C8 assessed as residual activity at 1 uM in the presence of NADPH incubated for 60 mins by LC-MS/MS analysis relative to control; format: ADME; settings: read-out: Activity
[16] = target: Cytochrome P450 1A2 (Homo sapiens, UniProt P05177); assay: Inhibition of CYP1A2 in human liver microsomes in the presence of NADPH incubated for 60 mins by LC-MS/MS analysis; format: ADME, Microsome
[17] = target: Cytochrome P450 2C8 (Homo sapiens, UniProt P10632); assay: Inhibition of CYP2C8 in human liver microsomes in the presence of NADPH incubated for 60 mins by LC-MS/MS analysis; format: ADME, Microsome
[18] = target: Cytochrome P450 3A4 (Homo sapiens, UniProt P08684); assay: Inhibition of CYP3A4 in human liver microsomes using testosterone as substrate and in presence of NADPH incubated for 60 mins by LC-MS/MS analysis; format: ADME, Microsome
[19] = Induction of CYP1A2 mRNA expression in human primary hepatocyte isolated from YND donor at 0.1 to 10 uM incubated for 72 hrs by real-time PCR analysis; format: ADME, cell-based; settings: hepatocytes, dose 0.1-10 µM
[20] = Induction of CYP3A4 mRNA expression in human primary hepatocyte isolated from YND donor at 0.1 to 10 uM incubated for 72 hrs by real-time PCR analysis; format: ADME, cell-based; settings: hepatocytes, dose 0.1-10 µM
[21] = Induction of CYP1A2 mRNA expression in human primary hepatocyte isolated from DZM donor at 0.1 to 10 uM incubated for 72 hrs by real-time PCR analysis; format: ADME, cell-based; settings: hepatocytes, dose 0.1-10 µM
[22] = Induction of CYP1A2 mRNA expression in human primary hepatocyte isolated from RAS donor at 0.1 to 10 uM incubated for 72 hrs by real-time PCR analysis; format: ADME, cell-based; settings: hepatocytes, dose 0.1-10 µM
[23] = Induction of CYP2B6 mRNA expression in human primary hepatocyte isolated from RAS donor at 0.1 to 10 uM incubated for 72 hrs by real-time PCR analysis; format: ADME, cell-based; settings: hepatocytes, dose 0.1-10 µM
[24] = tested on: Hepatocyte; assay: Cytotoxicity against human primary hepatocytes isolated from DZM donor at 0.1 to 10 uM incubated for 72 hrs by cytotox-glo assay; format: toxicity, cell-based; settings: dose 0.1-10 µM
[25] = tested on: Hepatocyte; assay: Cytotoxicity against human primary hepatocytes isolated from RAS donor at 0.1 to 10 uM incubated for 72 hrs by cytotox-glo assay; format: toxicity, cell-based; settings: dose 0.1-10 µM
[26] = Toxicity in Sprague-Dawley rats assessed as effect on central nervous system at 10 to 40 mg/kg, po administrated as single dose upto 24 hrs; format: organism-based; settings: rat, in vivo, dose 10-40 mg/kg
[27] = Drug distribution in Sprague-Dawley rat stomach at 5 mg/kg, IG administrated as single dose measured after 0.5 hrs by LC-MS/MS analysis; format: ADME, organism-based; settings: in vivo, po
[28] = Drug distribution in Sprague-Dawley rat brain at 5 mg/kg, IG administrated as single dose measured after 0.5 hrs by LC-MS/MS analysis; format: ADME, organism-based; settings: po, read-out: Ct
[29] = Drug accumulation in male Beagle dogs at 5 mg/kg, IG measured for 7 days by LC-MS/MS analysis; format: ADME, organism-based, Canis lupus familiaris; settings: dog, in vivo, po, 168 h, time 7 day
[30] = tested on: JeKo-1; assay: Antitumor activity against human JeKo-1 cells xenografted in female CB17 SCID mouse assessed as tumor growth inhibition at 40 mg/kg BID, po administered as 3 days on and 4 days off schedule for 24 days relative to control; format: functional; settings: JeKo-1, 576 h, time 24 day, read-out: TGI
[31] = Toxicity in female CB17 SCID mouse xenografted with human JeKo-1 cells assessed as body weight at 40 mg/kg BID, po administered as 3 days on and 4 days off schedule for 24 days; format: organism-based; settings: in vivo, 576 h, time 24 day
[32] = tested on: LoVo; assay: Antitumor activity against human LoVo cells xenografted in female Balb/c nude mouse assessed as tumor growth inhibition at 60 mg/kg QD, po measured every 3 days for 25 days relative to control; format: functional; settings: 600 h, time 25 day, read-out: TGI
[33] = tested on: LoVo; assay: Antitumor activity against human LoVo cells xenografted in female Balb/c nude mouse assessed as tumor growth inhibition at 40 mg/kg QD, po measured every 3 days for 25 days relative to control; format: functional; settings: 600 h, time 25 day, read-out: TGI
[34] = tested on: LoVo; assay: Antitumor activity against human LoVo cells xenografted in female Balb/c nude mouse assessed as tumor growth inhibition at 10 mg/kg QD, po measured every 3 days for 25 days relative to control; format: functional; settings: 600 h, time 25 day, read-out: TGI

Sequence of CYP3A4 (P08684 whole entry): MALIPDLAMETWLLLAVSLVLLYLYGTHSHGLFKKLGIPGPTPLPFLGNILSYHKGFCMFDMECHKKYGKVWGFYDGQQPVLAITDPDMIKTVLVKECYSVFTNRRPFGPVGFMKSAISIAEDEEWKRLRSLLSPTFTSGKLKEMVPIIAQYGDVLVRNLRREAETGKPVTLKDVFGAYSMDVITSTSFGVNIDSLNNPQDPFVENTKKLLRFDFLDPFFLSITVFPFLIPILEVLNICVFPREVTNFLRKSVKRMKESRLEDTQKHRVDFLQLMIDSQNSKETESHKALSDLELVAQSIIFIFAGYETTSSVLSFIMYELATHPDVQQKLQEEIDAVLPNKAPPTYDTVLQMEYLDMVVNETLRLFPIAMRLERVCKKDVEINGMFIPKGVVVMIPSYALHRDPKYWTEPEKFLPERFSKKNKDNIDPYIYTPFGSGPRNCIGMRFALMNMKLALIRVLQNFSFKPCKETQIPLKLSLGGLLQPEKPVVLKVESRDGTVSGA
Sequence of Cytochrome P450 3A4 (P08684 whole entry): as above
Sequence of CYP2C9 (P11712 whole entry): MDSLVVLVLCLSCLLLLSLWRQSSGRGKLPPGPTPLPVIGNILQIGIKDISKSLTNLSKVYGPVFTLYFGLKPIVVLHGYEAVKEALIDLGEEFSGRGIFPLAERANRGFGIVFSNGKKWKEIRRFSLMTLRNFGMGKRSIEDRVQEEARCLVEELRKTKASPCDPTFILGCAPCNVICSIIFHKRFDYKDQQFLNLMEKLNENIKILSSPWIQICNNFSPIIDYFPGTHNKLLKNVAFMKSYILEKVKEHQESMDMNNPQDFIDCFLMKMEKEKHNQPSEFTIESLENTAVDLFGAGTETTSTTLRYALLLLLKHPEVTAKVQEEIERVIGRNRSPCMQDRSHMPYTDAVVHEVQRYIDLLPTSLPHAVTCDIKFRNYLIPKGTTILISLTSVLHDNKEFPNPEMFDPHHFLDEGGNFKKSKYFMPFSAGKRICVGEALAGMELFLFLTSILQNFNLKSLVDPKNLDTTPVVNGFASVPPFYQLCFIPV
Sequence of CYP2C8 (P10632 whole entry): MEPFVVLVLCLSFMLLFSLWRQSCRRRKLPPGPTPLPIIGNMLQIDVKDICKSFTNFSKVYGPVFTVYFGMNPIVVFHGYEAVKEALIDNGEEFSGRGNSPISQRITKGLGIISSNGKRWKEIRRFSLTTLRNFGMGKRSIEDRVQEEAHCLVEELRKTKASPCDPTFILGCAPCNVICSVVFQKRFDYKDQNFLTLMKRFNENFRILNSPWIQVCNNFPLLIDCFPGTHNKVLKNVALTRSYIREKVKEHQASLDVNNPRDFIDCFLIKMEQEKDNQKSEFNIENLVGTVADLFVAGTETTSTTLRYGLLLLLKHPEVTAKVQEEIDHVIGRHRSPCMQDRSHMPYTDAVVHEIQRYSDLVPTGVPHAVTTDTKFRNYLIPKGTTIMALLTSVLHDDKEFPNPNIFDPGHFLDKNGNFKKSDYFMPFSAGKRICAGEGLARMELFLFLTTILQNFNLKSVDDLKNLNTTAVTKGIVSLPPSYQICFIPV
Sequence of Cytochrome P450 2C8 (P10632 whole entry): as above
Sequence of Phosphatidylinositol 4,5-bisphosphate 3-kinase catalytic subunit alpha isoform (P42336 whole entry, canonical isoform): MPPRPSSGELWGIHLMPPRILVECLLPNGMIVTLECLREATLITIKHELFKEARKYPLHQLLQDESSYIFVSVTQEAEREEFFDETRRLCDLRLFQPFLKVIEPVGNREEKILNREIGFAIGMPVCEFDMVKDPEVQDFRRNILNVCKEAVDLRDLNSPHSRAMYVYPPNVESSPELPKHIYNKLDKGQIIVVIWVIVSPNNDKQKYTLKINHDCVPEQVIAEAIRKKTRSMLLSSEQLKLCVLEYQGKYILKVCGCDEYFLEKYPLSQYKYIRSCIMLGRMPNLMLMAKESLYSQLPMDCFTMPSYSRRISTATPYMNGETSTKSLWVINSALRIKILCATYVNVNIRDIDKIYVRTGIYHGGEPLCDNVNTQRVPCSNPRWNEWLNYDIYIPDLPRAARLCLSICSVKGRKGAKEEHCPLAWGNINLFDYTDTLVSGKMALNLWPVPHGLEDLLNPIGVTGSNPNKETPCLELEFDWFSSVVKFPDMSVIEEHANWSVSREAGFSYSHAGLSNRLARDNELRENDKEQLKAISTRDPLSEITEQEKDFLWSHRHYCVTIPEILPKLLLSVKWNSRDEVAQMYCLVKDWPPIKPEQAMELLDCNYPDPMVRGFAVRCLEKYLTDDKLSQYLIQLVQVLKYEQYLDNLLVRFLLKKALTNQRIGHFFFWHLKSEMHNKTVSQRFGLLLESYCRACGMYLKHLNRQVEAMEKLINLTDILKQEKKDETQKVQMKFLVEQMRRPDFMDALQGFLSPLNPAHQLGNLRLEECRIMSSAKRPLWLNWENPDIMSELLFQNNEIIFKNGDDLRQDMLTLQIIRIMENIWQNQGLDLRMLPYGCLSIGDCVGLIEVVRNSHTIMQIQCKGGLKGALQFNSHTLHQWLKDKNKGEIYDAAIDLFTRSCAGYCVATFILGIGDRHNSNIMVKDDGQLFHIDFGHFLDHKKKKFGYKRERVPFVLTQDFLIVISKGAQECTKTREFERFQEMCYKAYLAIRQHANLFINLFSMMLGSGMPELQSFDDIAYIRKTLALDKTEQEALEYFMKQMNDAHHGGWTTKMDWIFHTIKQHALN
Sequence of Cytochrome P450 1A2 (P05177 whole entry): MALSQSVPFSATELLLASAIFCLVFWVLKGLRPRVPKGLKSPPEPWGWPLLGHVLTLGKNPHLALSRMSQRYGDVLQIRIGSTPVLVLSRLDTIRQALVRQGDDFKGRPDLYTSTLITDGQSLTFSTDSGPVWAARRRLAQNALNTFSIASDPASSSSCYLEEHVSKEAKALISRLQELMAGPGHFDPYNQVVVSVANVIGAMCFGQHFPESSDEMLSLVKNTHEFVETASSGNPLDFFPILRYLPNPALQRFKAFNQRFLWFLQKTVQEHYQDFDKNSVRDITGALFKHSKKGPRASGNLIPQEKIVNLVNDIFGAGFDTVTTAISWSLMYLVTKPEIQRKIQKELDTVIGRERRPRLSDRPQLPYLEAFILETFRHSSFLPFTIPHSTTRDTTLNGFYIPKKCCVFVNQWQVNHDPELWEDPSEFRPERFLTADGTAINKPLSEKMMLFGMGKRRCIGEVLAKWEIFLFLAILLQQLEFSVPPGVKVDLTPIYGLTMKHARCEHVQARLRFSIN
Sequence of CYP1A2 (P05177 whole entry): as above

Q: What does the source list for Cc1nn(-c2cccnc2)c(C)c1-c1cc(N2CC3CCC(C2)O3)nc2c(-c3ccn[nH]3)cnn12.O=C(O)/C=C/C(=O)O?
A: viability at 1 µM [1]: 65%; Activity [2]: 10%; viability at 3 µM [3]: 53.7%; Activity [4]: 23.8%; Activity [5]: 19.8%; pIC50 [6]: 5.45; fraction unbound at 5 h, 1 µM [7]: 0.256; Drug metabolism [8]: metabolite_notdetected; half-life [9]: > 120 min; half-life [10]: > 120 min; Drug metabolism [11]: metabolite_detected; activity at 1 h, 1 µM [12]: 105%; activity at 1 h, 1 µM [13]: 102%; activity at 1 h, 1 µM [14]: 73.3%; activity at 1 h, 1 µM [15]: 16.3%; pIC50 [16]: < 4.00; pIC50 [17]: 4.43; pIC50 [18]: 4.38; Activity [19]: Not_active; Activity [20]: Active; Activity [21]: Not_active; Activity [22]: Not_active; Activity [23]: Active; Activity [24]: Non-toxic; Activity [25]: Non-toxic; Activity [26]: Non-toxic; Drug uptake [27]: Active; concentration at 0.5 h [28]: 4.47 ng/g; Drug uptake [29]: Active; inhibition in vivo at 40 mg/kg [30]: 90.6%; Activity [31]: Non-toxic; inhibition in vivo at 60 mg/kg [32]: 67.4%; inhibition in vivo at 40 mg/kg [33]: 42.6%; inhibition in vivo at 10 mg/kg [34]: 13.9%
